# Starred links: 1 amine or outer side, 2 acyl side, 3 side chain; linkers in the order of their positions; H or OH if unused. Positions of bridges follow the written chain, without caps; N, C: chain ends. Non-standard residues stand in square brackets, D forms with d. Residues, ends and D or L forms follow the SMILES beside them. *: point of attachment. hPhe(3-Cl-4-CF3) = N[C@@H](CCc1ccc(C(F)(F)F)c(Cl)c1)C(=O)O; NMePhe(4-Me) = CN[C@@H](Cc1ccc(C)cc1)C(=O)O; NMedβ3hAla = C[C@H](CC(=O)[*:2])N(C)[*:1]; NMeGly(cPent) = CN[C@H](C(=O)O)C1CCCC1; NMe3Pal = CN[C@@H](Cc1cccnc1)C(=O)O; NMeCha = CN[C@@H](CC1CCCCC1)C(=O)O; Hyp = O=C(O)[C@@H]1C[C@@H](O)CN1; NMeAhp(2) = CCCCC[C@H](NC)C(=O)O; NMeChg = CN[C@H](C(=O)O)C1CCCCC1; NMeI = CC[C@H](C)[C@H](NC)C(=O)O; NMeD = CN[C@@H](CC(=O)O)C(=O)O; NMeL = CN[C@@H](CC(C)C)C(=O)O; NMeNle = CCCC[C@H](NC)C(=O)O; NMeV = CN[C@H](C(=O)O)C(C)C; NMeS = CN[C@@H](CO)C(=O)O; Morpholide = C1CN(*)CCO1; NMeA = CN[C@@H](C)C(=O)O; Piperidide = C1CCN(*)CC1; Pyrrolidide = C1CCN(*)C1; Ac5c = NC1(C(=O)O)CCCC1; Aze = O=C(O)[C@@H]1CCN1; Ac4c = NC1(C(=O)O)CCC1; Cyclopropyl = C1CC1*; Sar = CNCC(=O)O; Propyl = CCC*
# Test system: Human pancreatic cancer cell line AsPC-1
# Assay: Measurement of AsPC-1 cell growth inhibition (AsPC-1 CGI)
# Assay type: cell-based
# Details: 96 h
# Summary of the method: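 AsPC-1 cells in 15% FBS RPMI-1640 were exposed to test compound for 96 hours at 37° C, with CellTiter-Glo as endpoint.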
row,SMILES,IC50 [µM]
1,CC[C@H](C)[C@@H]1NC(=O)[C@H](CC(C)C)N(C)C(=O)C[C@@H](C(=O)N2CCCCC2)N(C)C(=O)[C@H](CC(C)C)N(C)C(=O)C2(CCCC2)NC(=O)[C@@H]2CCCN2C(=O)[C@H](CCc2ccc(C(F)(F)F)c(Cl)c2)NC(=O)CN(C)C(=O)[C@H](CC2CCCCC2)N(C)C(=O)[C@@H]2CCN2C(=O)[C@H](C)N(C)C1=O [Compound 1657] ([NMeL]I[NMeA][Aze][NMeCha][Sar][hPhe(3-Cl-4-CF3)]P[Ac5c][NMeL][NMeD]-Piperidide; lactam N-11),0.1 to 0.5
2,CC[C@H](C)[C@@H]1NC(=O)[C@H](CC(C)C)N(C)C(=O)C[C@@H](C(=O)N2CCCC2)N(C)C(=O)[C@H](C(C)C)N(C)C(=O)C2(CCCC2)NC(=O)[C@@H]2CCCN2C(=O)[C@H](CCc2ccc(C(F)(F)F)c(Cl)c2)NC(=O)CN(C)C(=O)[C@H](CC2CCCCC2)N(C)C(=O)[C@@H]2CCN2C(=O)CN(C)C1=O [Compound 1670] ([NMeL]I[Sar][Aze][NMeCha][Sar][hPhe(3-Cl-4-CF3)]P[Ac5c][NMeV][NMeD]-Pyrrolidide; lactam N-11),0.1 to 0.5
3,CC[C@H](C)[C@@H]1NC(=O)[C@H](CC(C)C)N(C)C(=O)C[C@@H](C(=O)N2CCCCC2)N(C)C(=O)[C@H](C(C)C)N(C)C(=O)C2(CCC2)NC(=O)[C@@H]2CCCN2C(=O)[C@H](CCc2ccc(C(F)(F)F)c(Cl)c2)NC(=O)CN(C)C(=O)[C@H](CC2CCCCC2)N(C)C(=O)[C@@H]2CCN2C(=O)[C@H](C)N(C)C1=O [Compound 1672] ([NMeL]I[NMeA][Aze][NMeCha][Sar][hPhe(3-Cl-4-CF3)]P[Ac4c][NMeV][NMeD]-Piperidide; lactam N-11),0.1 to 0.5
4,CC[C@H](C)[C@@H]1NC(=O)[C@H](CC(C)C)N(C)C(=O)C[C@@H](C(=O)N(C)C)N(C)C(=O)[C@H](C2CCCCC2)N(C)C(=O)C2(CCCC2)NC(=O)[C@@H]2CCCN2C(=O)[C@H](CCc2ccc(C(F)(F)F)c(Cl)c2)NC(=O)CN(C)C(=O)[C@H](CC2CCCCC2)N(C)C(=O)[C@@H]2CCN2C(=O)[C@H](C)N(C)C1=O [Compound 1675] ([NMeL]I[NMeA][Aze][NMeCha][Sar][hPhe(3-Cl-4-CF3)]P[Ac5c][NMeChg][NMeD]-NMe2; lactam N-11),0.02 to 0.05
5,CC[C@H](C)[C@@H]1NC(=O)[C@H](CC(C)C)N(C)C(=O)C[C@@H](C(=O)N2CCCC2)N(C)C(=O)[C@H](C2CCCC2)N(C)C(=O)C2(CCCC2)NC(=O)[C@@H]2CCCN2C(=O)[C@H](CCc2ccc(C(F)(F)F)c(Cl)c2)NC(=O)CN(C)C(=O)[C@H](CC2CCCCC2)N(C)C(=O)[C@@H]2CCN2C(=O)[C@H](C)N(C)C1=O [Compound 1679] ([NMeL]I[NMeA][Aze][NMeCha][Sar][hPhe(3-Cl-4-CF3)]P[Ac5c][NMeGly(cPent)][NMeD]-Pyrrolidide; lactam N-11),0.02 to 0.05
6,CC[C@H](C)[C@@H]1NC(=O)[C@H](CC(C)C)N(C)C(=O)C[C@@H](C(=O)N(C)C)N(C)C(=O)[C@H](C2CCCCC2)N(C)C(=O)C2(CCCC2)NC(=O)[C@@H]2CCCN2C(=O)[C@H](CCc2ccc(C(F)(F)F)c(Cl)c2)NC(=O)CN(C)C(=O)[C@H](Cc2ccc(C)cc2)N(C)C(=O)[C@@H]2CCN2C(=O)[C@H](C)N(C)C1=O [Compound 1685] ([NMeL]I[NMeA][Aze][NMePhe(4-Me)][Sar][hPhe(3-Cl-4-CF3)]P[Ac5c][NMeChg][NMeD]-NMe2; lactam N-11),0.02 to 0.05
7,CC[C@H](C)[C@@H]1NC(=O)[C@H](CC(C)C)N(C)C(=O)C[C@@H](C(=O)N2CCCC2)N(C)C(=O)[C@H](C2CCCCC2)N(C)C(=O)C2(CCCC2)NC(=O)[C@H](Cc2cccnc2)N(C)C(=O)[C@H](CCc2ccc(C(F)(F)F)c(Cl)c2)NC(=O)CN(C)C(=O)[C@H](CC2CCCCC2)N(C)C(=O)CN(C)C(=O)CN(C)C1=O [Compound 1693] ([NMeL]I[Sar][Sar][NMeCha][Sar][hPhe(3-Cl-4-CF3)][NMe3Pal][Ac5c][NMeChg][NMeD]-Pyrrolidide; lactam N-11),0.1 to 0.5
8,CCCCC[C@H]1C(=O)N[C@@H]([C@@H](C)CC)C(=O)N(C)[C@@H](C)C(=O)N2CC[C@H]2C(=O)N(C)[C@@H](CC2CCCCC2)C(=O)N(C)CC(=O)N[C@@H](CCc2ccc(C(F)(F)F)c(Cl)c2)C(=O)N2CCC[C@H]2C(=O)NC2(CCCC2)C(=O)N(C)[C@@H](C(C)C)C(=O)N(C)[C@H](C(=O)N2CCCCC2)CC(=O)N1C [Compound 1705] ([NMeAhp(2)]I[NMeA][Aze][NMeCha][Sar][hPhe(3-Cl-4-CF3)]P[Ac5c][NMeV][NMeD]-Piperidide; lactam N-11),0.1 to 0.5
9,CCCC[C@H]1C(=O)N(C)CC(=O)N[C@@H](CCc2ccc(C(F)(F)F)c(Cl)c2)C(=O)N2CCC[C@H]2C(=O)NC2(CCCC2)C(=O)N(C)[C@@H](C(C)C)C(=O)N(C)[C@H](C(=O)N2CCCCC2)CC(=O)N(C)[C@@H](CC(C)C)C(=O)N[C@@H]([C@@H](C)CC)C(=O)N(C)[C@@H](C)C(=O)N2CC[C@H]2C(=O)N1C [Compound 1712] ([NMeL]I[NMeA][Aze][NMeNle][Sar][hPhe(3-Cl-4-CF3)]P[Ac5c][NMeV][NMeD]-Piperidide; lactam N-11),0.1 to 0.5
10,CC[C@H](C)[C@@H]1NC(=O)[C@H](CC(C)C)N(C)C(=O)C[C@@H](C)N(C)C(=O)[C@H](C2CCCC2)N(C)C(=O)C2(CCCC2)NC(=O)[C@@H]2CCCN2C(=O)[C@H](CCc2ccc(C(F)(F)F)c(Cl)c2)NC(=O)CN(C)C(=O)[C@H](CC2CCCCC2)N(C)C(=O)[C@@H]2CCN2C(=O)[C@H](C)N(C)C1=O [Compound 1717] (cyclo([Ac5c][NMeGly(cPent)][NMedβ3hAla][NMeL]I[NMeA][Aze][NMeCha][Sar][hPhe(3-Cl-4-CF3)]P)),0.05 to 0.1
11,CC[C@H](C)[C@@H]1NC(=O)[C@H](CC(C)C)N(C)C(=O)C[C@@H](C(=O)N2CCCCC2)N(C)C(=O)[C@H]([C@@H](C)CC)N(C)C(=O)C2(CCCC2)NC(=O)[C@@H]2CCCN2C(=O)[C@H](CCc2ccc(C(F)(F)F)c(Cl)c2)NC(=O)CN(C)C(=O)[C@H](CC2CCCCC2)N(C)C(=O)[C@@H]2CCN2C(=O)[C@H](C)N(C)C1=O [Compound 1722] ([NMeL]I[NMeA][Aze][NMeCha][Sar][hPhe(3-Cl-4-CF3)]P[Ac5c][NMeI][NMeD]-Piperidide; lactam N-11),0.02 to 0.05
12,CC[C@H](C)[C@@H]1NC(=O)[C@H](CC(C)C)N(C)C(=O)C[C@@H](C(=O)N2CCCCC2)N(C)C(=O)[C@H]([C@@H](C)CC)N(C)C(=O)C2(CCCC2)NC(=O)[C@@H]2CCCN2C(=O)[C@H](CCc2ccc(C(F)(F)F)c(Cl)c2)NC(=O)CN(C)C(=O)[C@H](Cc2ccc(C)cc2)N(C)C(=O)[C@@H]2CCN2C(=O)[C@H](C)N(C)C1=O [Compound 1727] ([NMeL]I[NMeA][Aze][NMePhe(4-Me)][Sar][hPhe(3-Cl-4-CF3)]P[Ac5c][NMeI][NMeD]-Piperidide; lactam N-11),0.02 to 0.05
13,CC[C@H](C)[C@@H]1NC(=O)[C@H](CC(C)C)N(C)C(=O)C[C@@H](C(=O)N2CCCCC2)N(C)C(=O)[C@H](C(C)C)N(C)C(=O)C2(CCCC2)NC(=O)[C@@H]2CCCN2C(=O)[C@H](CCc2ccc(C(F)(F)F)c(Cl)c2)NC(=O)CN(C)C(=O)[C@H](C(C)C)N(C)C(=O)[C@@H]2CCN2C(=O)[C@H](C)N(C)C1=O [Compound 1737] ([NMeL]I[NMeA][Aze][NMeV][Sar][hPhe(3-Cl-4-CF3)]P[Ac5c][NMeV][NMeD]-Piperidide; lactam N-11),0.1 to 0.5
14,CCO[C@@H]1C[C@H]2C(=O)NC3(CCCC3)C(=O)N(C)[C@@H](CC(C)C)C(=O)N(C)[C@H](C(=O)N3CCCC3)CC(=O)N(C)[C@@H](CC(C)C)C(=O)N[C@@H]([C@@H](C)CC)C(=O)N(C)CC(=O)N(C)CC(=O)N(C)[C@@H](CC3CCCCC3)C(=O)N(C)CC(=O)N[C@@H](CCc3ccc(C(F)(F)F)c(Cl)c3)C(=O)N2C1 [Compound 1748] ([NMeL]I[Sar][Sar][NMeCha][Sar][hPhe(3-Cl-4-CF3)][Hyp](Et)[Ac5c][NMeL][NMeD]-Pyrrolidide; lactam N-11),0.05 to 0.1
15,CC[C@H](C)[C@@H]1NC(=O)[C@H](CC(C)C)N(C)C(=O)C[C@@H](C(=O)N2CCOCC2)N(C)C(=O)[C@H](C(C)C)N(C)C(=O)C2(CCCC2)NC(=O)[C@@H]2CCCN2C(=O)[C@H](CCc2ccc(C(F)(F)F)c(Cl)c2)NC(=O)CN(C)C(=O)[C@H](CC2CCCCC2)N(C)C(=O)[C@@H]2CCN2C(=O)CN(C)C1=O [Compound 1758] ([NMeL]I[Sar][Aze][NMeCha][Sar][hPhe(3-Cl-4-CF3)]P[Ac5c][NMeV][NMeD]-Morpholide; lactam N-11),0.1 to 0.5
16,CCCOC[C@H]1C(=O)N[C@@H]([C@@H](C)CC)C(=O)N(C)[C@@H](C)C(=O)N2CC[C@H]2C(=O)N(C)[C@@H](CC2CCCCC2)C(=O)N(C)CC(=O)N[C@@H](CCc2ccc(C(F)(F)F)c(Cl)c2)C(=O)N2CCC[C@H]2C(=O)NC2(CCCC2)C(=O)N(C)[C@@H](C(C)C)C(=O)N(C)[C@H](C(=O)N2CCCCC2)CC(=O)N1C [Compound 1763] ([NMeS](Propyl)I[NMeA][Aze][NMeCha][Sar][hPhe(3-Cl-4-CF3)]P[Ac5c][NMeV][NMeD]-Piperidide; lactam N-11),0.1 to 0.5
17,CC[C@H](C)[C@@H]1NC(=O)[C@H](COC2CC2)N(C)C(=O)C[C@@H](C(=O)N2CCCCC2)N(C)C(=O)[C@H](C(C)C)N(C)C(=O)C2(CCCC2)NC(=O)[C@@H]2CCCN2C(=O)[C@H](CCc2ccc(C(F)(F)F)c(Cl)c2)NC(=O)CN(C)C(=O)[C@H](CC2CCCCC2)N(C)C(=O)[C@@H]2CCN2C(=O)[C@H](C)N(C)C1=O [Compound 1764] ([NMeS](Cyclopropyl)I[NMeA][Aze][NMeCha][Sar][hPhe(3-Cl-4-CF3)]P[Ac5c][NMeV][NMeD]-Piperidide; lactam N-11),0.1 to 0.5
18,CC[C@H](C)[C@@H]1NC(=O)[C@H](C(C)C)N(C)C(=O)C[C@@H](C(=O)N2CCCCC2)N(C)C(=O)[C@H](C(C)C)N(C)C(=O)C2(CCCC2)NC(=O)[C@@H]2CCCN2C(=O)[C@H](CCc2ccc(C(F)(F)F)c(Cl)c2)NC(=O)CN(C)C(=O)[C@H](CC2CCCCC2)N(C)C(=O)[C@@H]2CCN2C(=O)[C@H](C)N(C)C1=O [Compound 1767] ([NMeV]I[NMeA][Aze][NMeCha][Sar][hPhe(3-Cl-4-CF3)]P[Ac5c][NMeV][NMeD]-Piperidide; lactam N-11),0.1 to 0.5

# — patent publication US12371454B2, “Cyclic peptide compound having Kras inhibitory action” (priority 2019, dated 2025)
